Here are results for one compound from patent publication US8372982B2, “Fungicidal N-(Phenylcycloalkyl)carboxamide, N-(Benzylcycloalkyl)carboxamide and thiocarboxamide derivatives” (Bayer Cropscience AG, priority 2009, dated 2013).

For the assay, the system named is Leptosphaeria nodosum. The experiment in a line: In vivo comparative test on Leptosphaeria nodoruin (wheat)/preventive. To be noted: dose of 500 ppm, preventive, evaluated 10 days after the inoculation. Here is the method:
Solvent: 49 parts by weight of N,N-dimethylacetamide Emulsifier: 1 part by weight of alkylaryl polyglycol ether To produce a suitable preparation of active compound, 1 part by weight of active compound or the compound combination is mixed with the stated amounts of solvent and emulsifier, and the concentrate is diluted with water to the desired concentration. To test for protective activity, young plants are sprayed with a preparation of active compound or active compound combination at the stated rate of application. After the spray coating has dried on, the plants are sprayed with a spore suspension of Leptosphaeria nodosum. The plants remain for 48 hours in an incubation cabinet at 20° C. and a relative atmospheric humidity of 100%. The plants are placed in a greenhouse at a temperature of approximately 15° C. and a relative atmospheric humidity of approximately 80%. The test is evaluated 10 days after the inoculation. 0% means an efficacy which corresponds to that of the control, while an efficacy of 100% means that no disease is observed. […]

For the compound `Cn1cc(C(=O)N[C@@H]2C[C@@H]2c2ccc(Cl)cc2)c(C(F)F)n1` (relative stereo) [Example 1.001, cis-N-[2-(4-chlorophenyl)cyclopropyl]-3-(difluoro-methyl)-1-methyl-1H-pyrazole-4-carboxamide], the disease control result was “less than 10%”.
